For this experiment, the target named is T1, SIRT1 (Homo sapiens, UniProt Q96EB6).
T1 sequence (Q96EB6 1-747): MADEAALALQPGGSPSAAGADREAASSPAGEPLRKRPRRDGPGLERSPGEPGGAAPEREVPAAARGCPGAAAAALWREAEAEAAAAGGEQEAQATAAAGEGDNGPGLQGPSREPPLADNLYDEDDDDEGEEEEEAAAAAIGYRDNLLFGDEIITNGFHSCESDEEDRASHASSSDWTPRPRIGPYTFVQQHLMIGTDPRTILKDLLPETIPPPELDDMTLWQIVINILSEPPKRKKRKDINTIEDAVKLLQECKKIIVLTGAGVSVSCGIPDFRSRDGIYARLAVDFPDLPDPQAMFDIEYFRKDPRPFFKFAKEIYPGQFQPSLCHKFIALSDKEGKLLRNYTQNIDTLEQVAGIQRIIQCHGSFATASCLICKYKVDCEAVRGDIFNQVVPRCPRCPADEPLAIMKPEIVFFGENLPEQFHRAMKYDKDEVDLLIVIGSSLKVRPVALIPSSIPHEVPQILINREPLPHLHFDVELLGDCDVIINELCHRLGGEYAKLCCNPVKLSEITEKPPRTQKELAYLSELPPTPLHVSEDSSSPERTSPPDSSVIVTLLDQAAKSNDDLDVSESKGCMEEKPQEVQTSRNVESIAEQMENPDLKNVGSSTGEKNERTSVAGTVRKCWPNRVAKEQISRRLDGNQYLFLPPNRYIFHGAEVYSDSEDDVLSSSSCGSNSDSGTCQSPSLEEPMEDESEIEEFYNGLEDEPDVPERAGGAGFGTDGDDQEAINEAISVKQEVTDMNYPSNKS
Put plainly: Mass spectrometry based SIRT1 deacetylase activation assay (acetylated p53-derived peptide substrate). The format is biochemical.

Setting [1] is: 0.5 μM peptide substrate, 120 μM βNAD+, 10 nM SIRT1, 25 min at 25° C.
Where [2] appears, read: 0.5 μM peptide substrate, 120 μM βNAD+, 10 nM SIRT1, 25 min at 25° C., read-out: EC1.5.
The mark [3] stands for this setting: 0.5 μM peptide substrate, 120 μM βNAD+, 10 nM SIRT1, 25 minutes at 25° C.

Where two headings read alike, the source gives them in different places.

In the case of `O=C(Nc1nccs1)c1cccc2[nH]c(-c3ccccc3OC3CCNC3)nc12` (stereo not drawn) [Compound 459, 2-(2-(pyrrolidin-3-yloxy)phenyl)-N-(thiazol-2-yl)-1H-benzo[d]imidazole-4-carboxamide], the “Fold Act. (percent maximum fold activation)” value under setting [1] is recorded as “A (Fold activation >200%)”. For the same molecule, the EC1.5 under setting [2] lay within 1000 to 25000 nM.

In the case of `Cc1nnc(NC(=O)c2cccc3[nH]c(-c4cccc(C(F)(F)F)c4)nc23)s1` [Compound 232], the EC1.5 entry was “B (EC1.5 1-25 uM)” and the “Fold Act. (percent maximum fold activation)” value was “A (Fold activation >200%)”.

As to `Cc1nc(-c2nc3c(C(=O)Nc4nccs4)cccc3[nH]2)c(C)o1` [Compound 244], the EC1.5 entry is reported as “B (EC1.5 1-25 uM)” and the “Fold Act. (percent maximum fold activation)” value is given as “A (Fold activation >200%)”.

With `CS(=O)(=O)c1cc(Cl)ccc1-c1nc2c(C(=O)Nc3ccccn3)cccc2[nH]1` [Compound 522], the “Fold Act. (percent maximum fold activation)” value under setting [1] was “A (Fold activation >200%)”. In addition, under setting [2], the EC1.5 is less than 1000 nM.

`CC1(C)Cc2cccc(-c3nc4c(C(=O)Nc5nccs5)cccc4[nH]3)c2O1` [Compound 383]: the EC1.5 result is given as “B (EC1.5 1-25 uM)” and the “Fold Act. (percent maximum fold activation)” value is “B (Fold Activation <200%)”.

As to `CC1(C)CN(c2ccc(C(F)(F)F)c(-c3nc4c(C(=O)Nc5ccccn5)cccc4[nH]3)c2)CCO1` [Compound 709], under setting [3], the EC1.5 entry is on record as “A (EC1.5<1.0 uM)” and the “Fold Act. (percent maximum fold activation)” value is given as “A (Fold activation >200%)”.

As to `O=C(Nc1nccs1)c1cccc2[nH]c(-c3cccc(CN4CCCC4)c3)nc12` [Compound 351], the EC1.5 entry is listed as “B (EC1.5 1-25 uM)” and the “Fold Act. (percent maximum fold activation)” value was “A (Fold activation >200%)”.

As for `O=C(NCc1ccccn1)c1cccc2[nH]c(-c3cccc(N4CCOCC4)c3)nc12` [Compound 471], under setting [1], the “Fold Act. (percent maximum fold activation)” value is “A (Fold activation >200%)”. For the same molecule, the EC1.5 under setting [2] lay in the range of 1000 to 25000 nM.

In the case of `O=C(Nc1nccs1)c1cccc2[nH]c(-c3cccnc3Cl)nc12` [Compound 245], the EC1.5 result is “B (EC1.5 1-25 uM)” and the “Fold Act. (percent maximum fold activation)” value is “A (Fold activation >200%)”.

For the molecule `CS(=O)(=O)c1ccccc1-c1nc2c(C(=O)Nc3nccs3)cccc2[nH]1` [Compound 517], the “Fold Act. (percent maximum fold activation)” value under setting [1] is “A (Fold activation >200%)”. The EC1.5 under setting [2] is 1000 to 25000 nM.

For `O=C(Nc1cccc2[nH]c(-c3cc(F)ccc3C(F)(F)F)nc12)c1cnccn1` [Compound 387], the EC1.5 result was “B (EC1.5 1-25 uM)” and the “Fold Act. (percent maximum fold activation)” value is reported as “A (Fold activation >200%)”.

For `O=C(Nc1ccccn1)c1cncc2[nH]c(-c3ccccc3C(F)(F)F)nc12` [Compound 636], under setting [3], the EC1.5 result is on record as “A (EC1.5<1.0 uM)” and the “Fold Act. (percent maximum fold activation)” value was “A (Fold activation >200%)”.

On to `O=C(Nc1ccncc1)c1cccc2[nH]c(-c3cccc(C(F)(F)F)c3)nc12` [Compound 242], for which the EC1.5 result is “B (EC1.5 1-25 uM)” and the “Fold Act. (percent maximum fold activation)” value is on record as “B (Fold Activation <200%)”.

Take `Cc1cnc(NC(=O)c2cccc3[nH]c(-c4cccc5c4OC(F)(F)O5)nc23)s1` [Compound 532]: the “Fold Act. (percent maximum fold activation)” value under setting [1] is “A (Fold activation >200%)”. The EC1.5 under setting [2] is less than 1000 nM.

`O=C(NCc1ccncc1)c1cccc2[nH]c(-c3cccc(C(F)(F)F)c3)nc12` [Compound 271]: the EC1.5 result is recorded as “C (EC1.5 >25 uM)” and the “Fold Act. (percent maximum fold activation)” value is “B (Fold Activation <200%)”.

`O=C(Nc1cccc(CN2CCOCC2)n1)c1cccc2[nH]c(-c3ccccc3C(F)(F)F)nc12` [Compound 672]: under setting [3], the EC1.5 entry is given as “A (EC1.5<1.0 uM)” and the “Fold Act. (percent maximum fold activation)” value is “A (Fold activation >200%)”.

For `O=C(Nc1cccc(OC2CCNCC2)c1)c1cccc2[nH]c(-c3cc(F)ccc3C(F)(F)F)nc12` [Compound 525], the “Fold Act. (percent maximum fold activation)” value under setting [1] was “A (Fold activation >200%)”. Moreover, the EC1.5 under setting [2] is less than 1000 nM.

In the case of `O=C(Nc1ccc(CN2CCCC2)cn1)c1cccc2[nH]c(-c3cc(F)ccc3C(F)(F)F)nc12` [Compound 625], under setting [3], the EC1.5 result is recorded as “A (EC1.5<1.0 uM)” and the “Fold Act. (percent maximum fold activation)” value was “A (Fold activation >200%)”.

With `O=C(Nc1nccs1)c1cccc2[nH]c(-c3ccccc3OC(F)(F)F)nc12` [Compound 305], the EC1.5 result was “A (EC1.5<1.0 uM)” and the “Fold Act. (percent maximum fold activation)” value is recorded as “A (Fold activation >200%)”.

Turning to `O=C(NC1CCOC1=O)c1cccc2[nH]c(-c3ccc(F)cc3C(F)(F)F)nc12` (stereo not drawn) [Compound 374], the EC1.5 entry is “C (EC1.5 >25 uM)” and the “Fold Act. (percent maximum fold activation)” value is listed as “B (Fold Activation <200%)”.

Consider `CC(C)N1CCN(c2cccc(-c3nc4c(C(=O)Nc5ccccn5)cccc4[nH]3)c2)CC1` [Compound 530], for which, under setting [1], the “Fold Act. (percent maximum fold activation)” value is given as “A (Fold activation >200%)”. Moreover, under setting [2], the EC1.5 was less than 1000 nM.

As for `O=C(Nc1nccs1)c1cc(F)cc2nc(-c3ccc(F)cc3C(F)F)[nH]c12` [Compound 824], under setting [3], the EC1.5 result is given as “A (EC1.5<1.0 uM)” and the “Fold Act. (percent maximum fold activation)” value was “A (Fold activation >200%)”.

As to `O=C(Nc1nccs1)c1cccc2[nH]c(-c3cc(Cl)ccc3C(F)(F)F)nc12` [Compound 258], the EC1.5 entry is given as “B (EC1.5 1-25 uM)” and the “Fold Act. (percent maximum fold activation)” value is given as “A (Fold activation >200%)”.

In the case of `O=C(NCc1ccccn1)c1cccc2[nH]c(-c3ccc(Cl)cc3C(F)(F)F)nc12` [Compound 433], the “Fold Act. (percent maximum fold activation)” value under setting [1] is on record as “B (Fold Activation <200%)”. Besides, under setting [2], the EC1.5 lay within 1000 to 25000 nM.

For `O=C(Nc1nccs1)c1cccc2[nH]c(-c3c(F)cccc3C(F)(F)F)nc12` [Compound 264], the EC1.5 result is listed as “B (EC1.5 1-25 uM)” and the “Fold Act. (percent maximum fold activation)” value is listed as “A (Fold activation >200%)”.

`O=C(Nc1nccs1)c1cccc2[nH]c(-c3c(F)cccc3F)nc12` [Compound 265]: the EC1.5 entry is “B (EC1.5 1-25 uM)” and the “Fold Act. (percent maximum fold activation)” value is given as “A (Fold activation >200%)”.

For `O=C(NC1CN2CCC1CC2)c1cccc2[nH]c(-c3cccc(C(F)(F)F)c3)nc12` (stereo not drawn) [Compound 272], the EC1.5 entry is given as “B (EC1.5 1-25 uM)” and the “Fold Act. (percent maximum fold activation)” value is reported as “A (Fold activation >200%)”.

For the molecule `O=C(Nc1cccc(OC[C@H](O)CO)c1)c1cccc2[nH]c(-c3ccc(N4CC[C@H](F)C4)cc3C(F)(F)F)nc12` [Compound 779], under setting [3], the EC1.5 result is listed as “A (EC1.5<1.0 uM)” and the “Fold Act. (percent maximum fold activation)” value was “A (Fold activation >200%)”.

With `Cc1cc(NC(=O)c2cccc3[nH]c(-c4ccc(F)cc4C(F)(F)F)nc23)no1` [Compound 464], under setting [1], the “Fold Act. (percent maximum fold activation)” value was “A (Fold activation >200%)”. The EC1.5 under setting [2] is less than 1000 nM.

Consider `O=C(Nc1cc[nH]n1)c1cccc2[nH]c(-c3cccc(C(F)(F)F)c3)nc12` [Compound 207], for which the EC1.5 result was “B (EC1.5 1-25 uM)” and the “Fold Act. (percent maximum fold activation)” value is listed as “A (Fold activation >200%)”.

On to `O=C(Nc1nccs1)c1cccc2[nH]c(-c3ccccc3OCCN3CCNCC3)nc12` [Compound 483], for which, under setting [1], the “Fold Act. (percent maximum fold activation)” value is given as “A (Fold activation >200%)”. Further, the EC1.5 under setting [2] fell in the range of 1000 to 25000 nM.

Turning to `Cc1nc(NC(=O)c2cccc3[nH]c(-c4cccc(N5CCOCC5)c4)nc23)sc1C` [Compound 382], the EC1.5 result is recorded as “A (EC1.5<1.0 uM)” and the “Fold Act. (percent maximum fold activation)” value is recorded as “A (Fold activation >200%)”.

As for `O=C(Nc1ccc[n+]([O-])c1)c1cccc2[nH]c(-c3ccccc3C(F)(F)F)nc12` [Compound 336], the EC1.5 result is reported as “A (EC1.5<1.0 uM)” and the “Fold Act. (percent maximum fold activation)” value was “A (Fold activation >200%)”.

With `Cc1cnc(NC(=O)c2cncc3[nH]c(-c4ccccc4C(F)(F)F)nc23)s1` [Compound 639], under setting [3], the EC1.5 result is “A (EC1.5<1.0 uM)” and the “Fold Act. (percent maximum fold activation)” value is given as “A (Fold activation >200%)”.

Take `O=C(Nc1nccs1)c1cccc2[nH]c(-c3cc(F)cc(Cl)c3OCCN3CCOCC3)nc12` [Compound 543]: the “Fold Act. (percent maximum fold activation)” value under setting [1] is “B (Fold Activation <200%)”. The EC1.5 under setting [2] fell in the range of 1000 to 25000 nM.

Regarding `O=C(Nc1ccccn1)c1cccc2[nH]c(-c3ccc(N4CC[C@H](F)C4)cc3C(F)F)nc12` [Compound 733], under setting [3], the EC1.5 result is on record as “A (EC1.5<1.0 uM)” and the “Fold Act. (percent maximum fold activation)” value is “A (Fold activation >200%)”.

`Cc1nc(NC(=O)c2cccc3[nH]c(-c4ccccc4OCCN4CCOCC4)nc23)sc1C` [Compound 476]: the “Fold Act. (percent maximum fold activation)” value under setting [1] was “A (Fold activation >200%)”. In addition, under setting [2], the EC1.5 is 1000 to 25000 nM.

Turning to `Cc1ncccc1-c1nc2c(C(=O)Nc3nc(CN4CCOCC4)cs3)cccc2[nH]1` [Compound 842], under setting [3], the EC1.5 result is given as “A (EC1.5<1.0 uM)” and the “Fold Act. (percent maximum fold activation)” value is on record as “A (Fold activation >200%)”.

As for `CS(=O)(=O)c1ccccc1-c1nc2c(C(=O)Nc3cccnc3)cccc2[nH]1` [Compound 518], the “Fold Act. (percent maximum fold activation)” value under setting [1] was “A (Fold activation >200%)”. Under setting [2], the EC1.5 was in the range of 1000 to 25000 nM.

These data come from patent publication US8846947B2, “Benzimidazoles and related analogs as sirtuin modulators” (GlaxoSmithKline LLC, priority 2008, dated 2014).
